Results published in patent US8058264B2, “Pharmaceutical compositions comprising CB1 cannabinoid receptor antagonists and potassium channel openers for the treatment of obesity and related conditions” (Abbott Products GmbH, priority 2004, dated 2011).

target: T1, hamster SUR1 (Cricetus cricetus, UniProt Q09427); test: Competitive binding to sulfonylurea and KCO sites of SUR1 ([3H]glibenclamide displacement, COS-cell membranes); conditions: SUR1 versus SUR2 selectivity, in words
T1 construct: expressed in transfected cells; host or cells: COS-1 cells, transient transfection (pcDNA vector), membrane preparation
T1 sequence (Q09427 whole entry): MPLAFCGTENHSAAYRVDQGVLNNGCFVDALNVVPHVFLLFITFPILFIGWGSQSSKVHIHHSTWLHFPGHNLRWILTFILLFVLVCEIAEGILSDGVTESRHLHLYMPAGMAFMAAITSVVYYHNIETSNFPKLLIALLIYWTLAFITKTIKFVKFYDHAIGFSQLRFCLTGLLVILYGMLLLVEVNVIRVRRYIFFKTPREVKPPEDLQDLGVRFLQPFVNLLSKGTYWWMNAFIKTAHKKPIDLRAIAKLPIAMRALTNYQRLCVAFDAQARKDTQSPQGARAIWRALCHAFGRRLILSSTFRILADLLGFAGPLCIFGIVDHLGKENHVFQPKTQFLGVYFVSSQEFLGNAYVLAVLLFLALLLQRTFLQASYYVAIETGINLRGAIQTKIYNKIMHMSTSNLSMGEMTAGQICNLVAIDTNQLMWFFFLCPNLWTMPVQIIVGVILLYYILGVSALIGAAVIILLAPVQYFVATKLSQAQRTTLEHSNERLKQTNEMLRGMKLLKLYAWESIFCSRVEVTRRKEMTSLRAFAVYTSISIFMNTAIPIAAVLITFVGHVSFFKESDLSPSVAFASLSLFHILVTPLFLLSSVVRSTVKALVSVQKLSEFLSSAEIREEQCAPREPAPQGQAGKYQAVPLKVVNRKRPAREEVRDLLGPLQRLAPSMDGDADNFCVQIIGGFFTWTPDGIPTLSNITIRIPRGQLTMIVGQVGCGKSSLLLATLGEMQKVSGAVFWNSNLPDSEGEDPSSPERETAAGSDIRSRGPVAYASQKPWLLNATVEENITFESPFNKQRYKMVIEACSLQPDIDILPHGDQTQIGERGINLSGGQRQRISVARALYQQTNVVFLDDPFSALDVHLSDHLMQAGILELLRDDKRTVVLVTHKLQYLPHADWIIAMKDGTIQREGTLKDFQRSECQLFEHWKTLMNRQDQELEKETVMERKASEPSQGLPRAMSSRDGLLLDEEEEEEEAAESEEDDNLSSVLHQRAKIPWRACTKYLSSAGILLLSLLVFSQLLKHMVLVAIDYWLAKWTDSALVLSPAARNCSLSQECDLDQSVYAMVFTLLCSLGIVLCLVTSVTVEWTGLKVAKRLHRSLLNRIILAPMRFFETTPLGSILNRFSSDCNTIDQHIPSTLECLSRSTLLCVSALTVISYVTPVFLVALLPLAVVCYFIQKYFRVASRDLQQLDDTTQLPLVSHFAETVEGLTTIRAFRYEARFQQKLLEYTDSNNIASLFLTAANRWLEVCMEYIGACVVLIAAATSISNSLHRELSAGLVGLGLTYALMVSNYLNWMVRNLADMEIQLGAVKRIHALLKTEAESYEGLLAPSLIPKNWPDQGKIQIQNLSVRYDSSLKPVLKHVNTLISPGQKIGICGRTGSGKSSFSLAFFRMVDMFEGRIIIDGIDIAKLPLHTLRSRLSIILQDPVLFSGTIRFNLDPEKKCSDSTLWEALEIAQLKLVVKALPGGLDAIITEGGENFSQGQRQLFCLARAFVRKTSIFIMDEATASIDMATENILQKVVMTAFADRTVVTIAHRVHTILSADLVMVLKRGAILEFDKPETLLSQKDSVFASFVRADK
Description: Competitive binding experiments were performed to characterize the affinity of the test compounds for the binding sites for sulfonylureas and KATP channel openers (=KCOs) on hamster SUR1. To assess the affinity for the sulfonylurea site membranes from COS-cells transiently expressing hamster SUR1 were incubated in the presence of [^3H]glibenclamide with increasing concentrations of test compounds. […] Per curve 9-15 distinct concentrations were tested covering the relevant range. All measurements were repeated at least 5 times in independent experiments.
[^3H]glibenclamide (specific activity 51 Ci mmol^−1) was obtained from NEN (Dreieich, Germany). If suitable, stock solutions were prepared in dimethylsulfoxide with a final solvent concentration in the media below 1%.
SUR- or Kir6.x isoforms were used either subcloned in the pcDNA (hamster SUR1, mouse Kir6.2) or pCMV vector (rat SUR2A, SUR2B).
For transfection the cells were incubated 4 hours in a Tris-buffered salt solution containing DNA (5-10 μg/ml) plus DEAE-dextran (1 mg/ml), 2 min in HEPES-buffered salt solution plus dimethylsulfoxide (10%) and 4 hours in DMEM-HG plus chloroquine (100 μM). Cells were then returned to DMEM-HG plus 10% FCS. […] For binding experiments resuspended membranes (final protein concentration 5-50 μg/ml) were incubated in “Tris-buffer” (50 mM, pH 7.4) containing either [^3H]glibenclamide (final concentration 0.3 nM or 3 nM and nonspecific binding defined by 100 nM or 1 μM glibenclamide for SUR1 or SUR2Y1205S-isoforms, respectively) or [^3H]P1075 (final concentration 3 nM, nonspecific binding defined by 100 μM pinacidil) and increasing concentrations of the test compounds. […] Incubations were carried out for 1 h at room temperature and were terminated by rapid filtration through Whatman GF/B filters.
The inhibition constant (Ki value) of the test substances was calculated from the respective IC50 value, and was stated as the negative logarithmised value thereof (pKi).

Row | Structure (SMILES) | pki (SUR1) compared with pki (SUR2)
1 | O=C(NS(=O)(=O)c1ccc(Cl)cc1)c1cc(-c2ccc(Br)cc2)n(-c2ccc(Cl)cc2Cl)n1 [5-(4-bromophenyl)-N-[(4-chlorophenyl)sulfonyl]-1-(2,4-dichlorophenyl)-1H-pyrazole-3-carboxamide] | pki (SUR1) larger than pki (SUR2)
2 | CS(=O)(=O)C(=C1CN(C(c2ccc(Cl)cc2)c2ccc(Cl)cc2)C1)c1cc(F)cc(F)c1 [1-[bis(4-chlorophenyl)methyl]-3-[(3,5-difluorophenyl)(methylsulfonyl)-methylene]azetidine] | pki (SUR1) larger than pki (SUR2)
3 | CCCCCc1nc(-c2ccc(Cl)cc2Cl)n(-c2ccc(Cl)cc2)c1C [1-(4-chlorophenyl)-2-(2,4-dichlorophenyl)-5-methyl-4-pentyl-1H-imidazole] | pki (SUR1) larger than pki (SUR2)
4 | CCCCCNC(=O)c1nc(-c2ccc(Cl)cc2Cl)n(-c2ccc(Br)cc2)c1CC [1-(4-bromophenyl)-2-(2,4-dichlorophenyl)-5-ethyl-N-pentyl-1H-imidazole-4-carboxamide] | pki (SUR1) larger than pki (SUR2)
5 | CNC(=NS(=O)(=O)N(C)C)N1CC(c2cccc(F)c2)C(c2ccc(Cl)cc2)=N1 (stereo not drawn) [3-(4-chlorophenyl)-N′-[(dimethyl-amino)sulfonyl]-4-(3-fluorophenyl)-N-methyl-4,5-dihydro-1H-pyrazole-1-carboximidamide] | pki (SUR1) larger than pki (SUR2)
6 | CCc1c(C(=O)NN2CCCCC2)nc(-c2ccc(Cl)cc2Cl)n1-c1ccc(Br)cc1 [1-(4-bromophenyl)-2-(2,4-dichloro-phenyl)-5-ethyl-N-piperidin-1-yl-1H-imidazole-4-carboxamide] | pki (SUR1) larger than pki (SUR2)
7 | CN1CCC(CNC(=NS(=O)(=O)c2ccc(Cl)cc2)N2CC(c3ccccc3)C(c3ccc(Cl)cc3)=N2)C1 (stereo not drawn) [3-(4-chlorophenyl)-N′-[(4-chlorophenyl)sulfonyl]-N-[(1-methylpyrrolidin-3-yl)-methyl]-4-phenyl-4,5-dihydro-1H-pyrazole-1-carboximidamide] | pki (SUR1) larger than pki (SUR2)
8 | CCCCC(C)(O)c1nc(-c2ccc(Cl)cc2Cl)n(-c2ccc(Cl)cc2)c1C (stereo not drawn) [2-[1-(4-chlorophenyl)-2-(2,4-dichlorophenyl)-5-methyl-1H-imidazol-4-yl]hexan-2-ol] | pki (SUR1) larger than pki (SUR2)
9 | O=C1c2ccccc2S(=O)(=O)N1C1CN(C(c2ccc(Cl)cc2)c2ccc(Cl)cc2)C1 [2-{1-[bis(4-chlorophenyl)methyl]azetidin-3-yl}-1,2-benzisothiazol-3(2H)-one 1,1-dioxide] | pki (SUR1) larger than pki (SUR2)
10 | CNC(=NS(=O)(=O)N1CCOCC1)C1=NN(c2ccc(Cl)cc2Cl)C(c2ccccc2)C1 (stereo not drawn) [1-(2,4-dichlorophenyl)-N-methyl-N′-(morpholin-4-ylsulfonyl)-5-phenyl-4,5-dihydro-1H-pyrazole-3-carboximidamide] | pki (SUR1) larger than pki (SUR2)
11 | O=C(NN1CCCCC1)c1nn(-c2ccc(Cl)cc2Cl)c2c1CCCc1cc(Cl)ccc1-2 [8-chloro-1-(2,4-dichlorophenyl)-N-piperidin-1-yl-1,4,5,6-tetrahydrobenzo[6,7]cyclohepta[1,2-c]pyrazole-3-carboxamide] | pki (SUR1) larger than pki (SUR2)
12 | O=S(=O)(N=C(NCc1cccnc1)N1CC(c2ccccc2)C(c2ccc(Cl)cc2)=N1)c1ccc(Cl)cc1 (stereo not drawn) [3-(4-chlorophenyl)-N′-[(4-chlorophenyl)sulfonyl]-4-phenyl-N-(pyridin-3-ylmethyl)-4,5-dihydro-1H-pyrazole-1-carboximidamide] | pki (SUR1) larger than pki (SUR2)
13 | CCCCCCC(C)(C)c1ccc([C@@H]2C[C@H](O)CC[C@H]2CCCO)c(O)c1 [5-(1,1-dimethylheptyl)-2-[(1R,2R,5R)-5-hydroxy-2-(3-hydroxypropyl)cyclohexyl]-phenol] | pki (SUR1) larger than pki (SUR2)
14 | CN(C)S(=O)(=O)N=C(NCCF)N1CC(c2ccccc2)C(c2ccc(Cl)cc2)=N1 (stereo not drawn) [3-(4-chlorophenyl)-N′-[(dimethylamino)sulfonyl]-N-(2-fluoro-ethyl)-4-phenyl4,5-dihydro-1H-pyrazole-1-carboximidamide] | pki (SUR1) larger than pki (SUR2)
15 | Cc1c(NC(=O)c2ccccc2)nc(-c2ccc(Cl)cc2Cl)n1-c1ccc(Cl)cc1 [N-[1-(4-chlorophenyl)-2-(2,4-di-chlorophenyl)-5-methyl-1H-imidazol-4-yl]benzamide] | pki (SUR1) larger than pki (SUR2)
16 | CCC1CN=C(N2CC(c3ccccc3)C(c3ccc(Cl)cc3)=N2)O1 (stereo not drawn) [2-[3-(4-chlorophenyl)-4-phenyl-4,5-dihydro-1H-pyrazol-1-yl]-5-ethyl-4,5-dihydro-1,3-oxazole] | pki (SUR1) larger than pki (SUR2)
17 | NC(=NS(=O)(=O)c1ccc(Cl)cc1)N1CC(c2ccccc2)C(c2ccc(Cl)cc2)=N1 (stereo not drawn) [3-(4-chlorophenyl)-N′-[(4-chlorophenyl)sulfonyl]-4-phenyl-4,5-dihydro-1H-pyrazole-1-carboximidamide] | pki (SUR1) larger than pki (SUR2)
18 | CSc1c(C(=O)NC2CCCCC2)nc(-c2ccc(Cl)cc2Cl)n1-c1ccc(Cl)cc1 [1-(4-chlorophenyl)-N-cyclohexyl-2-(2,4-dichlorophenyl)-5-(methylthio)-1H-imidazole-4-carboxamide] | pki (SUR1) larger than pki (SUR2)
19 | N[C@@H](Cc1ccc(Cl)c(Cl)c1)C(=O)N1CC(c2ccccc2)C(c2ccc(Cl)cc2)=N1 (stereo partly drawn) [(2S)-1-[3-(4-chlorophenyl)-4-phenyl-4,5-dihydro-1H-pyrazol-1-yl]-3-(3,4-dichloro-phenyl)-1-oxopropan-2-amine] | pki (SUR1) larger than pki (SUR2)
20 | CNC(=NS(=O)(=O)N1CCOCC1)N1CC(c2ccccc2)C(c2ccc(Cl)cc2)=N1 (stereo not drawn) [3-(4-chlorophenyl)-N-methyl-N′-(morpholin-4-ylsulfonyl)-4-phenyl-4,5-dihydro-1H-pyrazole-1-carboximidamide] | pki (SUR1) larger than pki (SUR2)
21 | NC(=NS(=O)(=O)c1ccc(Cl)cc1)N1C[C@H](c2ccccc2)C(c2ccc(Cl)cc2)=N1 [(4S)-3-(4-chlorophenyl)-N′-[(4-chlorophenyl)sulfonyl]-4-phenyl-4,5-dihydro-1H-pyrazole-1-carboximidamide] | pki (SUR1) larger than pki (SUR2)
22 | CNC(=NS(=O)(=O)N1CCCCC1)C1=NN(c2ccc(Cl)cc2)C(c2ccccc2)C1 (stereo not drawn) [1-(4-chlorophenyl)-N-methyl-5-phenyl-N′-(piperidin-1-yl-sulfonyl)-4,5-dihydro-1H-pyrazole-3-carboximidamide] | pki (SUR1) larger than pki (SUR2)
23 | CCN(CC)C(=O)c1cn(-c2ccc(Cl)cc2)c(-c2ccc(Cl)cc2Cl)n1 [1-(4-chlorophenyl)-2-(2,4-dichlorophenyl)-N,N-diethyl-1H-imidazole-4-carboxamide] | pki (SUR1) larger than pki (SUR2)
24 | CNC(=NS(=O)(=O)c1ccc(Cl)cc1)N1CC(c2cccnc2)C(c2ccc(Cl)cc2)=N1 (stereo not drawn) [3-(4-chlorophenyl)-N′-[(4-chlorophenyl)sulfonyl]-N-methyl-4-pyridin-3-yl-4,5-dihydro-1H-pyrazole-1-carboximidamide] | pki (SUR1) larger than pki (SUR2)
